Legend:
[1] = system: Cytotoxic T cells; experiment: T cell proliferation under PD-L1 induced suppression; format: cell-based; conditions: αCD3/CD28 activated
Description: Cytotoxic T cells were incubated with αCD3/CD28 activating antibody and either control IgG, or with PD-L1 IgG (PD-1 agonist antibody) to induce T cell suppression, and further treated with vehicle, DGK inhibitor alone, DGK inhibitor loaded amph-NP, or amph-NP alone.

[2] = Hydrophobic drug loading capacity of NPs (UV-vis/HPLC); format: physicochemical
Source text: In this drug loading strategy, DGKi or other hydrophobic drugs in organic solvent are mixed with an aqueous suspension of amph-NPs and dialyzed to remove the organic solvent, leading to partitioning of the drug into the hydrophobic pockets of the amph-NP ligand shell. This approach allowed one to load drugs that are nearly insoluble in aqueous solutions to high degrees of “solubility” via incorporation into MUS or MUSOT amph-NPs.
More detailed procedures to prepare small molecules-loaded NPs are as follows: Hydrophobic small molecules are dissolved in pure ethanol, and mixed with NPs in a dialysis tube against water. Dialysis tubes containing 100-500 Da molecular weight cut off allows ethanol to permeate while retains most small molecules. […] Loaded drugs were then quantified via absorbance using UV-vis spectrometer.
To test immunomodulatory drug loading capacity, small-molecule drug N-acetylcysteine (NAC) was loaded directly onto the gold core via sulfur-gold covalent bonding. […] The drug loading efficiency was determined by HPLC and UV-vis.
In this drug loading strategy, DGKi or other hydrophobic drugs in organic solvent are mixed with an aqueous suspension of amph-NPs and dialyzed to remove the organic solvent, leading to partitioning of the drug into the hydrophobic pockets of the amph-NP ligand shell. […] Loaded drugs were then quantified via absorbance using UV-vis spectrometer. […]

[3] = target: PD-1; experiment: cell-based or functional assay
[4] = system: DCs, B and T cells; experiment: Immune cell activation in lymph nodes after s.c. R848; format: in vivo, C57BL/6 mice; conditions: doses above 5 μg, 24 h post injection
Description: From there they disperse into the body and drain into the lymph system where they encounter cells sensitive to their adjuvants. Serum inflammatory cytokines were tested one hour post injection given the short half-life of small molecules.
R848 (Resiquimod, a TLR7/8 agonist) was loaded into amph-NPs, and administered subcutaneously at the tail base. Serum was collected 1 hour post injection to evaluate systemic toxicity. Cells in LNs were isolated 24 h post injection to analyze immune cell activation.
Small molecules like R848 diffuse quickly into blood vessels, which may lead to severe systemic adverse effect. An experiment was designed to determine if by using lymph node targeted NPs, systemic adverse effects could be reduced while activation of local lymphocytes remains effective. Systemic toxicity was compared by measuring TNF, IL-6, IL-10, and MCP-1, and measuring activation of lymphatic cells.

## Cc1nc2sccn2c(=O)c1CCN1CCC(=C(c2ccccc2)c2ccc(F)cc2)CC1 [diacyl kinase inhibitor]
[1]; PD-L1 IgG (suppressed)
  % proliferating cells: 2.71%
[1]; control IgG
  % proliferating cells: 89.9%

## CN[C@@H](C)C(=O)N[C@H](C(=O)N1CCC[C@H]1c1nc(C(=O)c2ccc(F)cc2)cs1)C1CCCCC1 [LCL161]
[2]
  loading in amph-NPs: loads well

## PD-L1 IgG (PD-1 agonist antibody)
[3]
  % proliferating cells (cytotoxic T cells with anti-CD3/CD28, vehicle / no treatment; control IgG gave 71.3%): 0.98%

## CCOCc1nc2c(N)nc3ccccc3c2n1CC(C)(C)O [R848, Resiquimod]
[4]
  activation of immune cells in LNs: activated DCs, B and T cells

Source: US20180311174A1, “NANOPARTICLES COMPRISING A METAL CORE SURROUNDED BY A MONOLAYER FOR LYMPH NODE TARGETING” (Massachusetts Institute of Technology, priority 2015, published 2018)
